Test results published in patent publication US9340590B2 (priority 2011, dated 2016).
Where two headings read alike, the source gives them in different places. Positions of bridges follow the written chain, without caps; N, C: chain ends. Non-standard residues stand in square brackets, D forms with d. Residues, ends and D or L forms follow the SMILES beside them. 1Nal = N[C@@H](Cc1cccc2ccccc12)C(=O)O

Key:
[1] = biological target: hNav1.5 (Homo sapiens, UniProt Q14524); test: cell-based
[2] = biological target: hNav1.3 (Homo sapiens, UniProt Q9NY46); test: cell-based; conditions: IonWorks Quattro, read-out: IWQ Use Nav1.3
[3] = IonWorks Quattro, clamped to −110 mV, depolarized to −10 mV, 5 min after compound, n=2, read-out: IWQ Use Nav1.5
[4] = clamped to −110 mV, depolarized to −10 mV, 5 min after compound, n=2

Chain of hNav1.5 (Q14524 whole entry, looked up): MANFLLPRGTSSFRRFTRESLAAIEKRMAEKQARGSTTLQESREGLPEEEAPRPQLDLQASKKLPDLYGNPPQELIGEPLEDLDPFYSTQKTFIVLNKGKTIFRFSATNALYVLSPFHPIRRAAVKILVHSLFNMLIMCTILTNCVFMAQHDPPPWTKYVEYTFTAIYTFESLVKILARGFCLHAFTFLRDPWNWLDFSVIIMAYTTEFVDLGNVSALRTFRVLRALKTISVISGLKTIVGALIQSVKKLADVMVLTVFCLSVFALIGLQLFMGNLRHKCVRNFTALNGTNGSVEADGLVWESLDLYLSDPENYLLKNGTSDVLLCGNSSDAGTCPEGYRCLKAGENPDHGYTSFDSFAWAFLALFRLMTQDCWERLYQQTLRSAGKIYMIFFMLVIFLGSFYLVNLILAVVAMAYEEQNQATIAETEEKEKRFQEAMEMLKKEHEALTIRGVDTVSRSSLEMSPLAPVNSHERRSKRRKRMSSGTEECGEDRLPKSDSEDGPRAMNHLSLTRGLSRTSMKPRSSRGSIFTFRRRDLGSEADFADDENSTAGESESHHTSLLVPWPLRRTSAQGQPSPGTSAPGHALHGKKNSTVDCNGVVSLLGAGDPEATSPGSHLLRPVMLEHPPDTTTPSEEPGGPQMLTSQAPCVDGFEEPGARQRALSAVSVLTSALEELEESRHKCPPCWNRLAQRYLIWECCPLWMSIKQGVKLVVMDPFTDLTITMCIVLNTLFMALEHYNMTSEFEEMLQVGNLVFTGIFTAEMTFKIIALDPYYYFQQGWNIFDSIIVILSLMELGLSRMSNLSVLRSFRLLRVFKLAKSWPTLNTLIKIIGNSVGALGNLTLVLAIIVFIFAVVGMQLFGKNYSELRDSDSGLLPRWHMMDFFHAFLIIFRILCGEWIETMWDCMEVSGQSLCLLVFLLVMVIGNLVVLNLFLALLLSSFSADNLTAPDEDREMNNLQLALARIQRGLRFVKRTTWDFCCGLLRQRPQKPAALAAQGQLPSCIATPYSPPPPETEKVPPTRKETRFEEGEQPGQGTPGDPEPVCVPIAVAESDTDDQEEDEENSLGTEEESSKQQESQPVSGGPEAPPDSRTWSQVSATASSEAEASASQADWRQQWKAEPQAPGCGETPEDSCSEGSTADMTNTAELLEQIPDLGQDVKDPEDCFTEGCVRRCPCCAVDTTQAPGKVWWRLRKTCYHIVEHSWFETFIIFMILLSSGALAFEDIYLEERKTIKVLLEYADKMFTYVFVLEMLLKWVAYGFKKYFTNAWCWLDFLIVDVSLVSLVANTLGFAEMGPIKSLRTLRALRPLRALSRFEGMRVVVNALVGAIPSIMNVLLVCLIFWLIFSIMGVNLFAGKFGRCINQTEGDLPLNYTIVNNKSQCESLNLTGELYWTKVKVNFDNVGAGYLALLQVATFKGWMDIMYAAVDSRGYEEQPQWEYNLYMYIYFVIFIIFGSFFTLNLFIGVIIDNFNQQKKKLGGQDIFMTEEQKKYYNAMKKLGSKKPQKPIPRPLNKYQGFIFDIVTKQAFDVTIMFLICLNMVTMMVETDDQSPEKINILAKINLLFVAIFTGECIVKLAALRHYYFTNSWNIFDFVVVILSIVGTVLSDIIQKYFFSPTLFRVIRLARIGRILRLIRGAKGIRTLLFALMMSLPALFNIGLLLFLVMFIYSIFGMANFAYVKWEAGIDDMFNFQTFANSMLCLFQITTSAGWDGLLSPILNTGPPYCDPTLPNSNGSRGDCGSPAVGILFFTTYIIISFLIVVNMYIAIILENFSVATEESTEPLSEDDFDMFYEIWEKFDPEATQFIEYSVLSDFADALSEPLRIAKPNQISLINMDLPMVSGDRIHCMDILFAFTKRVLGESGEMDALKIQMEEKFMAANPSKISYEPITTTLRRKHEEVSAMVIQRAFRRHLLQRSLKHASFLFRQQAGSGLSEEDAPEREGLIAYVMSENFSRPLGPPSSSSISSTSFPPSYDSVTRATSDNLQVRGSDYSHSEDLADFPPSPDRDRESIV
Chain of hNav1.3 (Q9NY46 whole entry, looked up): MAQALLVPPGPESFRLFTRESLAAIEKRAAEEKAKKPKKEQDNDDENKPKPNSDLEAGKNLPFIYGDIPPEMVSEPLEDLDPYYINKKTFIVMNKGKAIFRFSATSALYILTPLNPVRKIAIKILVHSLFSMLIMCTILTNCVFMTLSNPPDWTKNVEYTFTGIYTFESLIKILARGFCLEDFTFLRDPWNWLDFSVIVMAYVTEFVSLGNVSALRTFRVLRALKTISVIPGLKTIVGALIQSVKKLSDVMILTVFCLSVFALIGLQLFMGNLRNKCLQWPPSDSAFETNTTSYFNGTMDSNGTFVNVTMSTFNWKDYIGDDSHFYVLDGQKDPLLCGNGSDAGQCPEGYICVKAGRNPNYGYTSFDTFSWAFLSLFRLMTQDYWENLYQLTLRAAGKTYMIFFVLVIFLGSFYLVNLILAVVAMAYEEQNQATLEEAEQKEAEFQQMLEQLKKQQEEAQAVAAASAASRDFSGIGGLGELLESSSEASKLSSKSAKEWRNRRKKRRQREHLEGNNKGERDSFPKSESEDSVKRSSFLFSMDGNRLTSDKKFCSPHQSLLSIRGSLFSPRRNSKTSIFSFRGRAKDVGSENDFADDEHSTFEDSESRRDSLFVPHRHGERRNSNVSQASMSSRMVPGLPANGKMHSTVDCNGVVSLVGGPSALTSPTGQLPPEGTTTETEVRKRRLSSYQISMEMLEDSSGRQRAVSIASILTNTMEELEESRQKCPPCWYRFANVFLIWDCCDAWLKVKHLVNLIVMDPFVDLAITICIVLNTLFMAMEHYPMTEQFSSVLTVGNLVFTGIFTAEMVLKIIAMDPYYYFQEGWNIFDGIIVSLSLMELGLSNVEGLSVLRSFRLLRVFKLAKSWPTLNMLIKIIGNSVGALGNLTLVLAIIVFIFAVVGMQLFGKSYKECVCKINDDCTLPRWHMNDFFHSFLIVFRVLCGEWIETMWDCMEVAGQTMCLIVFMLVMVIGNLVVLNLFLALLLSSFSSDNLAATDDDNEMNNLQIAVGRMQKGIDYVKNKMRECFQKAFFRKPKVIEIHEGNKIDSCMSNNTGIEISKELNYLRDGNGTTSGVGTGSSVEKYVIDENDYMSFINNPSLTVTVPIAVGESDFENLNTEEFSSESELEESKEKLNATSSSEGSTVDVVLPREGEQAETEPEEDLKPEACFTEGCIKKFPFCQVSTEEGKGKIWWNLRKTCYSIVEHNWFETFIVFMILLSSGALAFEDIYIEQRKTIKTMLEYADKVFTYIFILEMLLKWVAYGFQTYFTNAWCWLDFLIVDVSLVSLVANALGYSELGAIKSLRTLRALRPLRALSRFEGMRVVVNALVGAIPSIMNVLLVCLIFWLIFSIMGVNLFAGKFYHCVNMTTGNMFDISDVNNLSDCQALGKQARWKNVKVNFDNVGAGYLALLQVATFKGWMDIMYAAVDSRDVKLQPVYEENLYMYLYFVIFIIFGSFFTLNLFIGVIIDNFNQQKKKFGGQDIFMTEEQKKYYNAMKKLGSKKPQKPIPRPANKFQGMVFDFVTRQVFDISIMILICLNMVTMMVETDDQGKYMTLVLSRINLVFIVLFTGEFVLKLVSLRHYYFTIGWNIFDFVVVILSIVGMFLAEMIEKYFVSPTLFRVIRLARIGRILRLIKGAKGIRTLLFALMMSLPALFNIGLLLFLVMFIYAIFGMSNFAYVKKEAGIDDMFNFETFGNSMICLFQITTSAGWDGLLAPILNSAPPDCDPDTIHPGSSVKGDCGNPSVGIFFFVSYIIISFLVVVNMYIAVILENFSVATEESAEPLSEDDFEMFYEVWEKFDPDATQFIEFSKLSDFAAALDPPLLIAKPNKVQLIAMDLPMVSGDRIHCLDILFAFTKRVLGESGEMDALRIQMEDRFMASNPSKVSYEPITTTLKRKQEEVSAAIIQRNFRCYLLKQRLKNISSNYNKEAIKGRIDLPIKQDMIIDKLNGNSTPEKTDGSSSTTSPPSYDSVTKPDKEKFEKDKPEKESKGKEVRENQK

Row | SMILES | IC50 [1, 3] | IC50 [2, 4] | other results
1 | CC[C@H](C)[C@@H]1NC(=O)[C@@H]2CSSC[C@@H]3NC(=O)[C@H](C(C)C)NC(=O)[C@H](CC(C)C)NC(=O)[C@H](CC(N)=O)NC(=O)[C@@H]4CCCN4C(=O)[C@H](CCCNC(=N)N)NC(=O)[C@H](CSSC[C@H](NC(=O)[C@@H](N)CCC(=O)O)C(=O)N[C@@H](CC(C)C)C(=O)NCC(=O)N[C@@H](Cc4ccccc4)C(=O)N[C@@H](CCSC)C(=O)N[C@@H](CCCNC(=N)N)C(=O)N[C@@H](CCCCN)C(=O)N2)NC(=O)[C@H](CSSC[C@@H](C(=O)N[C@@H](CCCCN)C(=O)N[C@@H](Cc2ccc(O)cc2)C(=O)N[C@H](C(=O)N[C@@H](Cc2ccccc2)C(N)=O)C(C)C)NC(=O)[C@H](Cc2c[nH]c4ccccc24)NC(=O)[C@H](CCCCN)NC(=O)[C@H](Cc2cnc[nH]2)NC(=O)[C@H]([C@@H](C)O)NC(=O)[C@H](CCCNC(=N)N)NC(=O)[C@H](CO)NC3=O)NC(=O)[C@H](CCCCN)NC(=O)[C@H](CC(=O)O)NC(=O)[C@H](CC(N)=O)NC(=O)[C@H](CC(=O)O)NC(=O)[C@@H]2CCCN2C1=O [SEQ ID NO: 18] (H-ECLGFMRKCIPDNDKCCRPNLVCSRTHKWCKYVF-NH2; disulfide 2-17, 9-23, 16-30) | 14.2 µM | 0.15 µM | –
2 | CC[C@H](C)[C@@H]1NC(=O)[C@@H]2CSSC[C@@H]3NC(=O)[C@H](C(C)C)NC(=O)[C@H](CC(C)C)NC(=O)[C@H](CC(N)=O)NC(=O)[C@@H]4CCCN4C(=O)[C@H](CCCNC(=N)N)NC(=O)[C@H](CSSC[C@H](NC(=O)[C@H](C)N)C(=O)N[C@@H](CC(C)C)C(=O)NCC(=O)N[C@@H](Cc4ccccc4)C(=O)N[C@@H](CCSC)C(=O)N[C@@H](CCCNC(=N)N)C(=O)N[C@@H](CCCCN)C(=O)N2)NC(=O)[C@H](CSSC[C@@H](C(=O)N[C@@H](CCCCN)C(=O)N[C@@H](Cc2ccc(O)cc2)C(=O)N[C@H](C(=O)N[C@@H](Cc2ccccc2)C(N)=O)C(C)C)NC(=O)[C@H](Cc2c[nH]c4ccccc24)NC(=O)[C@H](CCCCN)NC(=O)[C@H](Cc2cnc[nH]2)NC(=O)[C@H]([C@@H](C)O)NC(=O)[C@H](CCCNC(=N)N)NC(=O)[C@H](CO)NC3=O)NC(=O)[C@H](CCCCN)NC(=O)[C@H](CC(=O)O)NC(=O)[C@H](CC(N)=O)NC(=O)[C@H](CC(=O)O)NC(=O)[C@@H]2CCCN2C1=O [SEQ ID NO: 20] (H-ACLGFMRKCIPDNDKCCRPNLVCSRTHKWCKYVF-NH2; disulfide 2-17, 9-23, 16-30) | 9.86 µM | 0.08 µM | –
3 | CC[C@H](C)[C@@H]1NC(=O)[C@@H]2CSSC[C@@H]3NC(=O)[C@H](C(C)C)NC(=O)[C@H](CC(C)C)NC(=O)[C@H](CC(N)=O)NC(=O)[C@@H]4CCCN4C(=O)[C@H](CCCNC(=N)N)NC(=O)[C@H](CSSC[C@H](NC(=O)[C@@H](N)CC(=O)O)C(=O)N[C@@H](CC(C)C)C(=O)N[C@@H](CCC(=O)O)C(=O)N[C@@H](Cc4ccccc4)C(=O)N[C@@H](CCSC)C(=O)N[C@@H](CCCNC(=N)N)C(=O)N[C@@H](CCCCN)C(=O)N2)NC(=O)[C@H](CSSC[C@@H](C(=O)N[C@@H](CCCCN)C(=O)N[C@@H](Cc2ccc(O)cc2)C(=O)N[C@H](C(=O)N[C@@H](Cc2ccccc2)C(N)=O)C(C)C)NC(=O)[C@H](Cc2c[nH]c4ccccc24)NC(=O)[C@H](CCCCN)NC(=O)[C@H](Cc2cnc[nH]2)NC(=O)[C@H]([C@@H](C)O)NC(=O)[C@H](CCCNC(=N)N)NC(=O)[C@H](CO)NC3=O)NC(=O)[C@H](CCCCN)NC(=O)[C@H](CC(=O)O)NC(=O)[C@H](CC(N)=O)NC(=O)[C@H](CC(=O)O)NC(=O)[C@@H]2CCCN2C1=O [SEQ ID NO: 24] (H-DCLEFMRKCIPDNDKCCRPNLVCSRTHKWCKYVF-NH2; disulfide 2-17, 9-23, 16-30) | – | 1.33 µM | IC50 ([1]; IWQ Use Nav1.5): 17.6 µM
4 | CC[C@H](C)[C@@H]1NC(=O)[C@@H]2CSSC[C@@H]3NC(=O)[C@H](C(C)C)NC(=O)[C@H](CC(C)C)NC(=O)[C@H](CC(N)=O)NC(=O)[C@@H]4CCCN4C(=O)[C@H](CCCNC(=N)N)NC(=O)[C@H](CSSC[C@H](NC(=O)[C@@H](N)CC(=O)O)C(=O)N[C@@H](CC(C)C)C(=O)NCC(=O)N[C@@H](Cc4ccccc4)C(=O)N[C@@H](CCSC)C(=O)N[C@@H](CCCNC(=N)N)C(=O)N[C@@H](CCCCN)C(=O)N2)NC(=O)[C@H](CSSC[C@@H](C(=O)N[C@@H](CCCCN)C(=O)N[C@@H](Cc2ccc(O)cc2)C(=O)N[C@@H](CCC(=O)O)C(=O)N[C@@H](Cc2ccccc2)C(N)=O)NC(=O)[C@H](Cc2c[nH]c4ccccc24)NC(=O)[C@H](CCCCN)NC(=O)[C@H](Cc2cnc[nH]2)NC(=O)[C@H]([C@@H](C)O)NC(=O)[C@H](CCCNC(=N)N)NC(=O)[C@H](CO)NC3=O)NC(=O)[C@H](CCCCN)NC(=O)[C@H](CC(=O)O)NC(=O)[C@H](CC(N)=O)NC(=O)[C@H](CC(=O)O)NC(=O)[C@@H]2CCCN2C1=O [SEQ ID NO: 33, [Glu33]GpTx-1] (H-DCLGFMRKCIPDNDKCCRPNLVCSRTHKWCKYEF-NH2; disulfide 2-17, 9-23, 16-30) | – | – | IC50 ([1]; Table 26, IonWorks Quattro, use, […], read-out: IWQ Use Nav1.5): 11.5 µM; IC50 ([2]; Table 26, use, […]): 0.39 µM
5 | CC[C@H](C)[C@@H]1NC(=O)[C@@H]2CSSC[C@@H]3NC(=O)[C@H](C(C)C)NC(=O)[C@H](CC(C)C)NC(=O)[C@H](CC(N)=O)NC(=O)[C@@H]4CCCN4C(=O)[C@H](CCCNC(=N)N)NC(=O)[C@H](CSSC[C@H](NC(=O)[C@@H](N)CCCCN)C(=O)N[C@@H](CC(C)C)C(=O)NCC(=O)N[C@@H](Cc4ccccc4)C(=O)N[C@@H](CCSC)C(=O)N[C@@H](CCCNC(=N)N)C(=O)N[C@@H](CCCCN)C(=O)N2)NC(=O)[C@H](CSSC[C@@H](C(=O)N[C@@H](CCCCN)C(=O)N[C@@H](Cc2ccc(O)cc2)C(=O)N[C@H](C(=O)N[C@@H](Cc2ccccc2)C(N)=O)C(C)C)NC(=O)[C@H](Cc2c[nH]c4ccccc24)NC(=O)[C@H](CCCCN)NC(=O)[C@H](Cc2cnc[nH]2)NC(=O)[C@H]([C@@H](C)O)NC(=O)[C@H](CCCNC(=N)N)NC(=O)[C@H](CO)NC3=O)NC(=O)[C@H](CCCCN)NC(=O)[C@H](CC(=O)O)NC(=O)[C@H](CC(N)=O)NC(=O)[C@H](CC(=O)O)NC(=O)[C@@H]2CCCN2C1=O [SEQ ID NO: 37] (H-KCLGFMRKCIPDNDKCCRPNLVCSRTHKWCKYVF-NH2; disulfide 2-17, 9-23, 16-30) | – | 0.07 µM | IC50 ([1]; IWQ Use Nav1.5): 7.29 µM
6 | CC[C@H](C)[C@@H]1NC(=O)[C@@H]2CSSC[C@@H]3NC(=O)[C@H](C(C)C)NC(=O)[C@H](CC(C)C)NC(=O)[C@H](CC(N)=O)NC(=O)[C@@H]4CCCN4C(=O)[C@H](CCCNC(=N)N)NC(=O)[C@H](CSSC[C@H](NC(=O)[C@@H](N)CCCNC(=N)N)C(=O)N[C@@H](CC(C)C)C(=O)NCC(=O)N[C@@H](Cc4ccccc4)C(=O)N[C@@H](CCSC)C(=O)N[C@@H](CCCNC(=N)N)C(=O)N[C@@H](CCCCN)C(=O)N2)NC(=O)[C@H](CSSC[C@@H](C(=O)N[C@@H](CCCCN)C(=O)N[C@@H](Cc2ccc(O)cc2)C(=O)N[C@H](C(=O)N[C@@H](Cc2ccccc2)C(N)=O)C(C)C)NC(=O)[C@H](Cc2c[nH]c4ccccc24)NC(=O)[C@H](CCCCN)NC(=O)[C@H](Cc2cnc[nH]2)NC(=O)[C@H]([C@@H](C)O)NC(=O)[C@H](CCCNC(=N)N)NC(=O)[C@H](CO)NC3=O)NC(=O)[C@H](CCCCN)NC(=O)[C@H](CC(=O)O)NC(=O)[C@H](CC(N)=O)NC(=O)[C@H](CC(=O)O)NC(=O)[C@@H]2CCCN2C1=O [SEQ ID NO: 62] (H-RCLGFMRKCIPDNDKCCRPNLVCSRTHKWCKYVF-NH2; disulfide 2-17, 9-23, 16-30) | 8.78 µM | 0.1 µM | –
7 | CC[C@H](C)[C@@H]1NC(=O)[C@@H]2CSSC[C@@H]3NC(=O)[C@H](C(C)C)NC(=O)[C@H](CC(C)C)NC(=O)[C@H](CC(N)=O)NC(=O)[C@@H]4CCCN4C(=O)[C@H](CCCNC(=N)N)NC(=O)[C@H](CSSC[C@H](NC(=O)[C@@H](N)CC(=O)O)C(=O)N[C@@H](CC(C)C)C(=O)NCC(=O)N[C@@H](Cc4ccccc4)C(=O)N[C@@H](CCSC)C(=O)N[C@@H](CCCNC(=N)N)C(=O)N[C@@H](CCCCN)C(=O)N2)NC(=O)[C@H](CSSC[C@@H](C(=O)N[C@@H](CCCCN)C(=O)N[C@@H](Cc2ccc(O)cc2)C(=O)N[C@H](C(=O)N[C@@H](Cc2ccccc2)C(N)=O)C(C)C)NC(=O)[C@H](Cc2cccc4ccccc24)NC(=O)[C@H](CCCCN)NC(=O)[C@H](Cc2cnc[nH]2)NC(=O)[C@H]([C@@H](C)O)NC(=O)[C@H](CCCNC(=N)N)NC(=O)[C@H](CO)NC3=O)NC(=O)[C@H](CCCCN)NC(=O)[C@H](CC(=O)O)NC(=O)[C@H](CC(N)=O)NC(=O)[C@H](CC(=O)O)NC(=O)[C@@H]2CCCN2C1=O [SEQ ID NO: 79, [1-Nal29]GpTx-1] (H-DCLGFMRKCIPDNDKCCRPNLVCSRTHK[1Nal]CKYVF-NH2; disulfide 2-17, 9-23, 16-30) | – | – | IC50 ([1]; Table 24, IonWorks Quattro, use, […], read-out: IWQ Use Nav1.5): 9.25 µM; IC50 ([2]; Table 24, use, […]): 1.55 µM
8 | CC[C@H](C)[C@@H]1NC(=O)[C@@H]2CSSC[C@@H]3NC(=O)[C@H](C(C)C)NC(=O)[C@H](CC(C)C)NC(=O)[C@H](CC(N)=O)NC(=O)[C@@H]4CCCN4C(=O)[C@H](CCCNC(=N)N)NC(=O)[C@H](CSSC[C@H](NC(=O)[C@@H](N)CC(=O)O)C(=O)N[C@@H](CC(C)C)C(=O)NCC(=O)N[C@@H](C)C(=O)N[C@@H](CCSC)C(=O)N[C@@H](CCCNC(=N)N)C(=O)N[C@@H](CCCCN)C(=O)N2)NC(=O)[C@H](CSSC[C@@H](C(=O)N[C@@H](CCCCN)C(=O)N[C@@H](Cc2ccc(O)cc2)C(=O)N[C@H](C(=O)N[C@@H](Cc2ccccc2)C(N)=O)C(C)C)NC(=O)[C@H](Cc2c[nH]c4ccccc24)NC(=O)[C@H](CCC(=O)O)NC(=O)[C@H](Cc2c[nH]cn2)NC(=O)[C@H]([C@@H](C)O)NC(=O)[C@H](CCCNC(=N)N)NC(=O)[C@H](CO)NC3=O)NC(=O)[C@H](CCCCN)NC(=O)[C@H](CC(=O)O)NC(=O)[C@H](CC(N)=O)NC(=O)[C@H](CC(=O)O)NC(=O)[C@@H]2CCCN2C1=O [compound 691] | – | – | IC50 ([1]; IonWorks Quattro, use-dependent protocol, hNav1.5, read-out: IWQ Use Nav1.5): > 5 µM
